Test results reported in patent US20240018129A1, “COMPOUNDS AS PU. 1 INHIBITORS” (PEKING UNIVERSITY, priority 2020, published 2024).

Legend:
[1] = test system: HFD/CCL4-induced NASH and liver fibrosis; assay: High-fat diet (HFD) combined with CCl4 (lower dose)-induced NASH model; type: in vivo, mouse
From the text: (§1) Methods: To evaluate the potential therapeutic effects of compound I-1 on liver disorders, including liver fat steatosis and accumulation, nonalcoholic fatty liver disease (NAFLD), nonalcoholic steatosis hepatitis (NASH), and liver fibrosis, three mice models (C57BL/6, male, 8 weeks old) were used. (I) NASH diet (Code.TD.160785, ENVIGO, USA)-induced NASH model: All mice were fed with NASH diet for 10 weeks. Mice were then randomly distributed into three groups, and each group was assigned to be injected daily with vehicle, compound I-1 (2.5mpk or 5mpk, i.p.), or DB1976 (2.5mpk, i.p, as a positive control) for another 6 weeks on continuous NASH diet. A group with normal regular diet was treated with vehicle as health control. (II) High-fat diet (HFD) combinate with CCl4 (lower dose)—induced NASH model. Mice were fed with normal regular diet or HFD (kcal fat 60%—D12492, research diets) for 10 weeks, then the HFD mice were divided into two groups randomly based on the rule of minimum weight differences. Each group was assigned to be injected with CCl4 (25% v/v in olive oil, 0.5 mL/kg body weight) or pure olive oil (i.p.) twice a week for 4 weeks. Compound 1-1 or vehicle (saline) were injected (i.p.) once daily for 4 weeks at the same time with CCl4 under continuous HFD. (III) CCl4 (higher dose)—induced liver fibrosis model. Liver fibrosis was induced by CCl4 injection (20% v/v in olive oil, 10 mL/kg body weight) twice a week for 6 weeks, compound I-1 or vehicle are also injected (i.p.) once daily for 6 weeks at the same time with CCl4 application. Ail the mice in the above-mentioned three models were observed daily. After the last day of treatment of all the models, mice were fasted overnight and euthanized. Serum was collected after centrifuging of the whole blood at 4 degrees, and blood biochemistry parameters were tested through automatic biochemical instrument (BS-240VET, Mindray). Part of liver tissues were fixed with paraformaldehyde, embedded with paraffin, and then sliced for H&E or Sirius red staining to check pathological features, and NAFLD scores. Kleiner, D. E. et al. Hepatology 41, 1313-1321, doi:10.1002/hep.20701 (2005). Part of liver tissues were used fresh, embedded in optimum cutting temperature compound, and sectioned. The sections were stained with 0.5% oil red 0 according to standard procedures after fixed in 4% paraformaldehyde in PBS. Another part of liver tissues were collected and stored in −80° C. after liquid nitrogen quick-freezing, RNA. isolation (Code.R6934, OMEGA., USA), first cDNA reverse (Code.AT341, TransGen, China), SYBR mix (Code.AQ601, TransGen, China) for Q-PCR (LightCycler®96, Roche) to verify genes mRNA level, such as, fibrosis-related genes, Col1a1 and Col1a2; inflammation-related genes, IL-6 and IL-1β.

[2] = test system: bleomycin-induced pulmonary fibrosis; assay: bleomycin-induced pulmonary fibrosis, preventive and therapeutic models; type: in vivo, mouse
Experimental: Methods: To evaluate the preventive and therapeutic effects of compound I-1 on pulmonary fibrosis, bleomycin was used to establish two animal models of pulmonary fibrosis with different drug intervention (6-8 weeks, C57BL/6, male). Bleomycin (0.025U, Code.D11063, OKA, China) was injected by a single intratracheal application. Equal volumes of sterilized saline served as a control. (I) Preventive model of bleomycin-induced pulmonary fibrosis. Compounds compound I-1, positive control DB1976, or vehicle (saline) were treated (injected intraperitoneally, i.p.) immediately after single bleomycin injection for 4 weeks (FIG. 4a). (II) Therapeutic model of bleomycin-induced pulmonary fibrosis. Mice were pre-charged with bleomycin for 11 days to induced pulmonary fibrosis, then treated with compounds compound I-1, positive control DB1976, or vehicle (saline) for 17 days, total time is 4 weeks after bleomycin treatment (FIG. 4h). After the last day of treatment of both models, mice were fasted overnight and euthanized. A part of lung was fixed with paraformaldehyde, embedded with paraffin, and then sliced for H&E and Sirius red staining to check pathological features, and Ashcroft scores. Hubner, R. H. et al. Biotechniques 44, 507-511, 514-507, doi:10.2144/000112729 (2008). Another part of lung were collected and stored in −80° C. after liquid nitrogen quick-freezing, RNA isolation (Code.R6934, OMEGA, USA), first cDNA reverse (Code.AT341, TransGen, China), SYBR mix (Code.AQ601, TransGen, China) for Q-PCR (LightCycle96, Roche) to verify several fibrosis-related genes mRNA level, such as, Col1a1 and Col1a2.

NASH diet-induced NASH = NASH diet-induced NASH model; type: in vivo, mouse
From the text: as §1

[3] = test system: CCl4-induced liver fibrosis; assay: CCl4 (higher dose)-induced liver fibrosis model; type: in vivo, mouse; details: 5mpk or 10mpk i.p. once daily for 6 weeks
From the text: as §1, with “Kleiner, D. E. et al. Hepatology 41, 1313-1321, doi:10.1002/hep.20701 (2005). Part of liver tissues were used fresh, embedded in optimum cutting temperature compound, and sectioned. The sections were stained with 0.5% oil red 0 according to standard procedures after fixed in 4% paraformaldehyde in PBS. Another part of liver tissues were collected and stored in −80° C. after liquid nitrogen quick-freezing, RNA. isolation (Code.R6934, OMEGA., USA), first cDNA reverse (Code.AT341, TransGen, China), SYBR mix (Code.AQ601, TransGen, China) for Q-PCR (LightCycler®96, Roche) to verify genes mRNA level, such as, fibrosis-related genes, Col1a1 and Col1a2; inflammation-related genes, IL-6 and IL-1β.” left out

PU.1 = target: T1, PU.1 (Mus musculus, UniProt P17433); assay: q-PCR of TIM-3 expression in Blast-PU.1 cells (PU.1 inhibition potency); type: cell-based
T1 construct: EGFP (from 'PU.1-EGFP-vector'); expressed in transfected cells
From the text: An acute T cell lymphoblastic leukemia (T-ALL) disease model was used to evaluate the effect of the newly synthesized compounds on PU.1 inhibition. Pten, a famous tumor suppressor gene, was […] deleted in mouse hematopoietic stem cells and their differentiated progeny, and this would eventually lead to a progressive T-ALL in about two months from born. It is believed that immune checkpoint T cell immunoglobulin mucin-3 (TIM-3), a surface marker for the isolation of pure leukemia-initiating cells (LICs), is transcriptionally regulated by transcription factor PU.1 in the Pten-null T-ALL model. Therefore, the expression level of TIM-3 was detected and quantified to characterize the inhibition potency of the compounds after 24 h treatment of graded concentrations of compounds. Blast cells were transfected with either PU.1-EGFP-vector or EGFP-vector to yield stable cell lines blast-PU.1 and blast-EGFP, respectively. These cell lines were used for compound testing in vitro. Compounds DB1976 and DB2115 were tested as well for comparison. Blast-PU.1 and blast-EGFP are the ideal cell lines for compounds testing in vitro, since they are T-ALL blast cells with […] TIM-3 and PU.1 expression level.

[4] = test system: T-ALL blast cells and TIM-3-high LICs; assay: Pten-null T-ALL mouse model, compound I-1 and/or rapamycin treatment
Experimental: To generate a Pten-null T-ALL mouse model, Pten was 40% deleted in mouse fetal liver hematopoietic stem cells (HSCs), followed by PI3K-AKT pathway activation, hematopoietic disorder and T-ALL development. In the T-ALL crisis stage, T-ALL blasts and LICs would infiltrate mouse hematopoietic organs and non-hematopoietic organs.
After treatment, hematopoietic and non-hematopoietic organ morphology of the mice was analyzed using hematoxylin-eosin (H&E) staining.

SMILES: N=C(N)c1ccc2nc(-c3ccc(NC(=O)[C@@H]4CCCN4C(=O)[C@@H]4CCCN4C(=O)c4ccc(-c5nc6ccc(C(=N)N)cc6[nH]5)cc4)cc3)[nH]c2c1 [Compound I-1, (S)-1-((4-(6-carbamimidoyl-1H-benzo[d]imidazol-2-yl)benzoyl)-L-prolyl)-N-(4-(6-carbamimidoyl-1H-benzo[d]imidazol-2-yl)phenyl)pyrrolidine-2-carboxamide]
- level of serum ALT ([1]; fasting serum): tendency to reduce
- serum triglyceride (TG) and total-cholesterol (TC) ([1]; fasting serum, i.p. once daily for 4 weeks): reduced
- body weight, gWAT and iWAT weight radio increased by HFD/CCL4 ([1]; i.p. once daily for 4 weeks with CCl4 under HFD): reversed
- reducing fat accumulation (H&E staining, liver steatosis score) ([1]; liver): not efficacious
- reducing inflammatory response (inflammatory infiltrates, inflammation score, liver mRNA of IL-1β and IL-6) ([1]; liver): efficacious
- collagen deposition (sirius red staining) and liver mRNA level of Col1a1 and Col1a2 ([1]; mouse, in vivo): reduced
- hepatotoxicity under its effective concentration ([1]; mouse, in vivo): not hepatotoxic
- liver fibrosis induced by HFD/CCL4 application ([1]; mouse, in vivo): significantly alleviated
- pulmonary fibrosis progress (staining, Ashcroft scores, collagen deposition, Col1a1, Col1a2 mRNA) ([2]; preventive model, 5mpk i.p. for 4 weeks after single bleomycin injection): significantly prevented
- bleomycin-induced pulmonary fibrosis ([2]; therapeutic model, 11 days after bleomycin then 17 days treatment, 5mpk): reversed and impede
- efficacy when comparing with DB1976 (2.5mpk) (NASH diet-induced NASH; 2.5mpk i.p. daily for 6 weeks): lower efficacy
- fat accumulation in liver (NASH diet-induced NASH; 2.5mpk i.p. daily for 6 weeks): decreased
- metabolic disturbance by NASH diet (body weight, liver fat, ALT, LDL-C, TC, IL-6, IL-1β, Col1a1, Col1a2) (NASH diet-induced NASH; 2.5mpk i.p. daily for 6 weeks): tendency to alleviate
- mRNA levels of IL-6, IL-1β and Col1a1, Col1a2 (NASH diet-induced NASH; 2.5mpk i.p. daily for 6 weeks, liver): lower
- metabolic disturbance by NASH diet (body weight, liver fat, ALT, LDL-C, TC, IL-6, IL-1β, Col1a1, Col1a2) (NASH diet-induced NASH; 5mpk i.p. daily for 6 weeks): potently alleviated
- CCl4-induced liver fibrosis [3]: alleviated
- collagen deposition and Sirius red-positive area [3]: significantly decreased
- inordinate mRNA level and blood biochemistry induced by CCl4 application [3]: ameliorated
- downregulated the expression level of TIM-3 (PU.1; 10 nM, 24 h treatment, Blast-PU.1 cell line, q-PCR): 40%
- activity in terms of PU.1-mediated TIM-3 inhibition, compared among tested compounds (PU.1; Blast-PU.1 cells): best activity
- TIM-3 high LICs proportion ([4]; after two days' treatment, bone marrow, without treatment 33.5%): 6.15%
- reduction of proportion of blasts (in words) ([4]; after two days' treatment, bone marrow, spleen and thymus): did not reduce
- organ morphology (H&E staining) compared with T-ALL group ([4]; treated at blast crisis stage for one month, thymus and spleen): no significant changes
